{"source": "patent US20110152177A1", "about": "“Functional Feed Composition” (priority 2008, published 2011)", "origin": "cited, not measured here", "key": {"[1]": {"tested_on": "Vibrio anguillarium", "details": "lower and higher doses reported to increase mortalities"}, "[2]": {"tested_on": "V. anguillarum", "details": "oral administration of PG at 0.2 and 2 mg/kg diet"}}, "data": [{"substance": "peptidoglycan", "values": [{"measurement": "optimal dose of peptidoglycan in diet", "setting": "[1]", "result": 4, "unit": "g kg^−1 diet"}, {"measurement": "disease resistance", "setting": "[2]", "result": "enhances the disease resistance"}]}]}
